{"source": "patent US20230118459A1", "about": "“ANTIVIRAL TREATMENT” (priority 2020, published 2023)", "key": {"HCV": {"system": "HCV", "conditions": "Anggakusuma et al., 2013, read-out: EC50 inhibiting binding and fusion; cited from earlier work"}, "[1]": {"system": "virus (not named) in Huh7 cells", "assay": "Cytopathic effect assay", "conditions": "for inhibition at 14 µM: read-out: average inhibition (%) at 14 μM; for inhibition at 29 µM: read-out: average inhibition (%) at 29 μM; for average inhibition (%) at 14 μM / average inhibition (%) at 29 μM: virus added directly after compound"}, "[2]": {"system": "enveloped viruses, including HIV, IAV, VSV, and SARS", "conditions": "VSV (Harada, 2005), SARS (Cinatl et al., 2003); cited from earlier work"}, "[3]": {"conditions": "Huh7 cells, cytopathic effect, 7 days at 33° C."}}, "data": [{"molecule": "COc1cc(/C=C/C(=O)CC(=O)/C=C/c2ccc(O)c(OC)c2)ccc1O", "note": "[Curcumin]", "values": [{"measurement": "EC50", "setting": "HCV", "result": 8.46, "unit": "µM"}]}, {"molecule": "CCCCCCCCCCCCCC(=O)NCCC[N+](C)(C)Cc1ccccc1", "note": "[ES001071, myristamido-propyl-dimethyl-benzyl-ammonium chloride, reference compound]", "values": [{"measurement": "EC30", "setting": "[1]; [3]", "result": 22.7, "unit": "µM"}, {"measurement": "inhibition at 14 µM", "setting": "[1]; Huh-7, 168 h", "result": 8.7, "unit": "%"}, {"measurement": "inhibition at 29 µM", "setting": "[1]; Huh-7, 168 h", "result": 35.9, "unit": "%"}]}, {"molecule": "CCCCCCCCCCCCCC(=O)NCCC[N+](C)(C)Cc1ccccc1.C[C@H](O)C(=O)[O-]", "note": "[ES001391, Myramistin (L)-lactate]", "values": [{"measurement": "average inhibition (%) at 14 μM", "setting": "[1]; Huh7 cells, 7 days at 33° C.", "result": 0, "unit": "%"}, {"measurement": "average inhibition (%) at 29 μM", "setting": "[1]; Huh7 cells, 7 days at 33° C.", "result": 18.5, "unit": "%"}, {"measurement": "EC30", "setting": "[1]; [3]", "result": 45.1, "unit": "µM"}]}, {"molecule": "CCCCCCCC(=O)[O-].CCCCCCCCCCCCCC(=O)NCCC[N+](C)(C)Cc1ccccc1", "note": "[ES001639, Myramistin capiylate]", "values": [{"measurement": "average inhibition (%) at 14 μM", "setting": "[1]; Huh7 cells, 7 days at 33° C.", "result": 17.9, "unit": "%"}, {"measurement": "average inhibition (%) at 29 μM", "setting": "[1]; Huh7 cells, 7 days at 33° C.", "result": 42.1, "unit": "%"}, {"measurement": "EC30", "setting": "[1]; [3]", "result": 22.3, "unit": "µM"}]}, {"molecule": "CCCCCCCCCCCCCC(=O)NCCC[N+](C)(C)Cc1ccccc1.O=C([O-])CO", "note": "[ES001652, Myramistin glycolate]", "values": [{"measurement": "average inhibition (%) at 14 μM", "setting": "[1]; Huh7 cells, 7 days at 33° C.", "result": 17.0, "unit": "%"}, {"measurement": "average inhibition (%) at 29 μM", "setting": "[1]; Huh7 cells, 7 days at 33° C.", "result": 36.2, "unit": "%"}, {"measurement": "EC30", "setting": "[1]; [3]", "result": 23.8, "unit": "µM"}]}, {"molecule": "CCCCCCCCCCCCCC(=O)NCCC[N+](C)(C)Cc1ccc(C)cc1", "note": "[ES001706, N-(3-(dimethyl 4-methylbenzylammonio)propyl)myristamide chloride]", "values": [{"measurement": "inhibition at 14 µM", "setting": "[1]; Huh-7, 168 h", "result": 23.8, "unit": "%"}, {"measurement": "inhibition at 29 µM", "setting": "[1]; Huh-7, 168 h", "result": 34.1, "unit": "%"}]}, {"molecule": "CCCCCCCCCCCCCC(=O)NCCC[N+](C)(C)Cc1ccc(C#N)cc1", "note": "[ES001713, N-(3-(dimethyl 4-cyanobenzylammonio)propyl)myristamide chloride]", "values": [{"measurement": "EC30", "setting": "[1]; [3]", "result": 11.8, "unit": "µM"}, {"measurement": "EC50", "setting": "[1]; Huh-7, 168 h", "result": 16.7, "unit": "µM"}, {"measurement": "inhibition at 14 µM", "setting": "[1]; Huh-7, 168 h", "result": 38.3, "unit": "%"}, {"measurement": "inhibition at 29 µM", "setting": "[1]; Huh-7, 168 h", "result": 79.4, "unit": "%"}]}, {"molecule": "CCCCCCCCCCCCCC(=O)NCCC[N+](C)(C)CCc1ccccc1.[Cl-]", "note": "[ES001726, N-(3-(dimethylethylenephenylammonio)propyl)myristamide chloride]", "values": [{"measurement": "average inhibition (%) at 14 μM", "setting": "[1]; Huh7 cells, 7 days at 33° C.", "result": 26.4, "unit": "%"}, {"measurement": "average inhibition (%) at 29 μM", "setting": "[1]; Huh7 cells, 7 days at 33° C.", "result": 14.9, "unit": "%"}, {"measurement": "EC30", "setting": "[1]; [3]", "result": 15.7, "unit": "µM"}]}, {"molecule": "CC1(C)[C@@H](O[C@H]2O[C@H](C(=O)O)[C@@H](O)[C@H](O)[C@H]2O[C@@H]2O[C@H](C(=O)O)[C@@H](O)[C@H](O)[C@H]2O)CC[C@]2(C)[C@H]3C(=O)C=C4[C@@H]5C[C@@](C)(C(=O)O)CC[C@]5(C)CC[C@@]4(C)[C@]3(C)CC[C@@H]12", "note": "[Glycyrrhizin]", "values": [{"measurement": "activity against enveloped viruses", "setting": "[2]", "result": "weakly active"}]}, {"molecule": "Myramistin citrate [ES001637]", "values": [{"measurement": "average inhibition (%) at 14 μM", "setting": "[1]; Huh7 cells, 7 days at 33° C.", "result": 19.5, "unit": "%"}, {"measurement": "average inhibition (%) at 29 μM", "setting": "[1]; Huh7 cells, 7 days at 33° C.", "result": 36.8, "unit": "%"}, {"measurement": "EC30", "setting": "[1]; [3]", "result": 21.1, "unit": "µM"}]}, {"molecule": "N-(3-(dimethyl 3-methylenethiophenyl ammonio)propyl)myristamide chloride [ES001716]", "values": [{"measurement": "average inhibition (%) at 14 μM", "setting": "[1]; Huh7 cells, 7 days at 33° C.", "result": 13.3, "unit": "%"}, {"measurement": "average inhibition (%) at 29 μM", "setting": "[1]; Huh7 cells, 7 days at 33° C.", "result": 51.8, "unit": "%"}, {"measurement": "EC30", "setting": "[1]; [3]", "result": 21.1, "unit": "µM"}, {"measurement": "EC50", "setting": "[1]; [3]", "result": 28.1, "unit": "µM"}]}, {"molecule": "N-(3-(dimethyl 4-methylenenaphthyl ammonio)propyl)myristamide chloride [ES001715]", "values": [{"measurement": "average inhibition (%) at 14 μM", "setting": "[1]; Huh7 cells, 7 days at 33° C.", "result": 45.4, "unit": "%"}, {"measurement": "average inhibition (%) at 29 μM", "setting": "[1]; Huh7 cells, 7 days at 33° C.", "result": 0, "unit": "%"}, {"measurement": "EC30", "setting": "[1]; [3]", "result": 10.0, "unit": "µM"}]}]}
